Where a name gives a salt, the structure may show the parent alone.
Tested on: MCh-induced bronchoconstriction
Assay: Einthoven assay: bronchoprotection against methacholine (MCh)-induced bronchoconstriction
Assay type: in vivo
Conditions: Rattus norvegicus, inhaled or nasal, 24 h, read-out: Broncho. at 24 h, Bronchoprotective effect present at 24 h, 100 μg by inhalation, 24 h after administration
Experimental: This assay measures the ability of a test compound to provide bronchoprotection against methacholine (MCh)-induced bronchoconstriction in a rat. Male Sprague-Dawley rats (Harlan, Indianapolis, Ind.), weighing between 200 g and 350 g, were used for all studies. Test compound or vehicle (sterile deionized water) were dosed by inhalation (1H) over a 10 min period in a pie shaped inhalation chamber (R+S Molds, San Carlos, Calif.) using 5 mL of dosing solution. […] Rats were dosed with 100 μg of test compound unless otherwise indicated. At predetermined time points, rats were anesthetized with an intraperitoneal (IP) injection of 120 mg/kg inactin (thiobutabarbital). A supplemental dose (40 mg/kg, IP) was administered if the animal responded to physical stimuli (e.g. toe pinch). The surgical site was shaved and a 1-2 cm midline incision of the ventral aspect of the neck was made. The jugular vein was isolated and cannulated with a saline-filled polyethylene catheter (PE-50) to allow IV infusion of MCh. Trachea was dissected free and cannulated with a 14G needle (#NE-014, Small Parts, Miami Lakes, Fla.). After placement of the tracheal cannula, each rat was ventilated using a respirator (Model 683, Harvard Apparatus, Inc., MA) set at a stroke volume of 1 mL/100 g body weight (but not exceeding 2.5 mL volume) and a rate of 90 strokes per minute. A T-connector was placed along the respirator expiratory tubing to allow for measurement of changes in ventilation pressure (VP) using a Biopac transducer that was connected to a Biopac […]) pre-amplifier. Body temperature was maintained at 37° C. using a heating pad. Changes in VP were recorded using the Acknowledge Data Collection Software (Santa Barbara, Calif.). Baseline values were collected for at least 2.5 min. Rats were then challenged with non-cumulative intravenous (IV) infusions of 40 and 80 μg/kg MCh. MCh was infused intravenously for 2.5 minutes from a syringe pump (sp210iw, World Precision Instruments, Inc., Sarasota, Fla.) at a rate of 2 mL/kg/min, with a 2 minute interval between the two doses of MCh. Changes in ventilation pressure (cm H2O) in treated animals are expressed as % inhibition of MCh response relative to control animals. Other bronchoconstrictors, such as histamine and acetylcholine, can be used in place of MCh in this assay. Additionally, guinea pigs can be used instead of rats. […] Inhibition greater than or equal to 30 percent at 24 h is indicative of a long duration of action.

How did the inhibition in vivo at 0.1 mg turn out when CC(Cc1ccc(CC(=O)Nc2cccc(N(C)C(=O)CCN3CCC(OC(=O)Nc4ccccc4-c4ccccc4)CC3)c2)cc1)NC[C@H](O)c1ccc(O)c2[nH]c(=O)ccc12 (stereo partly drawn) [Compound I-53, Biphenyl-2-ylcarbamic acid 1-[2-({3-[2-(4-{2-[(R)-2-hydroxy-2-(8-hydroxy-2-oxo-1,2-dihydroquinolin-5-yl)-ethylamino]propyl}phenyl)acetylamino]phenyl}methyl-carbamoyl)ethyl]piperidin-4-yl ester ditrifluoroacetic acid salt] was run?
The inhibition in vivo at 0.1 mg was < 30%.

Which inhibition in vivo at 0.1 mg does the source give for C[C@@H](Cc1cccc(CCNC(=O)c2ccc(N(C)C(=O)CCN3CCC(OC(=O)Nc4ccccc4-c4ccccc4)CC3)cc2)c1)NC[C@H](O)c1ccc(O)c2[nH]c(=O)ccc12 [Compound I-56, Biphenyl-2-ylcarbamic acid 1-[2-({4-[2-(3-{(S)-2-[(R)-2-hydroxy-2-(8-hydroxy-2-oxo-1,2-dihydroquinolin-5-yl)-ethylamino]propyl}phenyl)ethylcarbamoyl]phenyl}-methylcarbamoyl)ethyl]piperidin-4-yl ester ditrifluoroacetic acid salt] here?
The inhibition in vivo at 0.1 mg was < 30%.

Which inhibition in vivo at 0.1 mg does the source give for CN(C(=O)CCN1CCC(OC(=O)Nc2ccccc2-c2ccccc2)CC1)c1ccc(CC(=O)NCc2ccc(CCNC[C@H](O)c3ccc(O)c4[nH]c(=O)ccc34)cc2)cc1 [Compound I-64, Biphenyl-2-ylcarbamic acid 1-[2-({4-[(4-{2-[(R)-2-hydroxy-2-(8-hydroxy-2-oxo-1,2-dihydroquinolin-5-yl)-ethylamino]ethyl}benzylcarbamoyl)methyl]phenyl}-methylcarbamoyl)ethyl]piperidin-4-yl ester ditrifluoroacetic acid salt] here?
Its inhibition in vivo at 0.1 mg is < 30%.

With CC(Cc1ccc(CNC(=O)Cc2ccc(N(C)C(=O)CCN3CCC(OC(=O)Nc4ccccc4-c4ccccc4)CC3)cc2)cc1)NC[C@H](O)c1ccc(O)c2[nH]c(=O)ccc12 (stereo partly drawn) [Compound I-66, Biphenyl-2-ylcarbamic acid 1-[2-({4-[(4-{2-[(R)-2-hydroxy-2-(8-hydroxy-2-oxo-1,2-dihydroquinolin-5-yl)-ethylamino]propyl}benzylcarbamoyl)methyl]phenyl}-methylcarbamoyl)ethyl]piperidin-4-yl ester ditrifluoroacetic acid salt] as the molecule, how does the inhibition in vivo at 0.1 mg read?
Its inhibition in vivo at 0.1 mg is < 30%.

C[C@@H](Cc1cccc(CC(=O)NCc2ccc(N(C)C(=O)CCN3CCC(OC(=O)Nc4ccccc4-c4ccccc4)CC3)cc2)c1)NC[C@H](O)c1ccc(O)c2[nH]c(=O)ccc12 [Compound I-79, ditrifluoroacetic acid salt] was tested. Which inhibition in vivo at 0.1 mg did it give?
The inhibition in vivo at 0.1 mg was < 30%.

CC(Cc1ccc(CC(=O)NCc2ccc(N(C)C(=O)CCN3CCC(OC(=O)Nc4ccccc4-c4ccccc4)CC3)cc2)cc1)NC[C@H](O)c1ccc(O)c2[nH]c(=O)ccc12 (stereo partly drawn) [Compound I-80, Biphenyl-2-ylcarbamic acid 1-{2-[(4-{[2-(4-{2-[(R)-2-hydroxy-2-(8-hydroxy-2-oxo-1,2-dihydroquinolin-5-yl)-ethylamino]propyl}phenyl)acetylamino]methyl}-phenyl)methylcarbamoyl]ethyl}piperidin-4-yl ester ditrifluoroacetic acid salt] was tested. Which inhibition in vivo at 0.1 mg did it give?
Its inhibition in vivo at 0.1 mg is < 30%.

Same assay, conditions: rat, 100 μg by inhalation, 24 h after administration

CC(Cc1cccc(CCNC(=O)Cc2ccc(N(C)C(=O)CCN3CCC(OC(=O)Nc4ccccc4-c4ccccc4)CC3)cc2)c1)NC[C@H](O)c1ccc(O)c2[nH]c(=O)ccc12 (stereo partly shown) [Compound I-87] was tested. Which “Broncho. at 24 h; Bronchoprotective effect present at 24 h” value did it give?
Its value is “Yes (Bronchoprotective effect present at 24 h, e.g., ≧30% inhibition of the MCh response at 24 h in the rat Einthoven assay (100 μg))”.

— patent US8816088B2 (Theravance, Inc., priority 2009, dated 2014)
